# Measurements as given in ChEMBL document CHEMBL5338805, “Discovery of the First Subnanomolar PPARα/δ Dual Agonist for the Treatment of Cholestatic Liver Diseases” (J Med Chem, 2023).
# Tests used:
# Format in all cases: cell-based
# [1] = molecular target: T1, Peroxisome proliferator-activated receptor alpha (Homo sapiens, UniProt Q07869); assay: Agonist activity at human PPARalpha transfected in african green monkey COS7 cells assessed transactivation incubated for 16 hrs by luciferase assay
# T1 sequence (Q07869 whole entry): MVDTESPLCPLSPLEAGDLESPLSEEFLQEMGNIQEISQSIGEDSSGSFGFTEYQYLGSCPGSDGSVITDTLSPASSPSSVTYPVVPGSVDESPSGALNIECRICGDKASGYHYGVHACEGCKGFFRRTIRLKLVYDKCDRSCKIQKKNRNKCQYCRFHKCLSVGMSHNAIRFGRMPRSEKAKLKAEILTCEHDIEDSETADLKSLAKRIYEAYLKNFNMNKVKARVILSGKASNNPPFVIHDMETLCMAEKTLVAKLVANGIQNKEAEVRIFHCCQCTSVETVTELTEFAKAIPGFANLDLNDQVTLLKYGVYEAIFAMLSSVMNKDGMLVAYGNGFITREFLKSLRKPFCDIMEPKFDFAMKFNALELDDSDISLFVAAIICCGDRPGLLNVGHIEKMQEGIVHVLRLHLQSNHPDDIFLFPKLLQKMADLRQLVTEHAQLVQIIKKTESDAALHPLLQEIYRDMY
# [2] = molecular target: T2, Peroxisome proliferator-activated receptor gamma (Homo sapiens, UniProt P37231); assay: Agonist activity at human PPARgamma transfected in african green monkey COS7 cells assessed transactivation incubated for 16 hrs by luciferase assay
# T2 sequence (P37231 whole entry): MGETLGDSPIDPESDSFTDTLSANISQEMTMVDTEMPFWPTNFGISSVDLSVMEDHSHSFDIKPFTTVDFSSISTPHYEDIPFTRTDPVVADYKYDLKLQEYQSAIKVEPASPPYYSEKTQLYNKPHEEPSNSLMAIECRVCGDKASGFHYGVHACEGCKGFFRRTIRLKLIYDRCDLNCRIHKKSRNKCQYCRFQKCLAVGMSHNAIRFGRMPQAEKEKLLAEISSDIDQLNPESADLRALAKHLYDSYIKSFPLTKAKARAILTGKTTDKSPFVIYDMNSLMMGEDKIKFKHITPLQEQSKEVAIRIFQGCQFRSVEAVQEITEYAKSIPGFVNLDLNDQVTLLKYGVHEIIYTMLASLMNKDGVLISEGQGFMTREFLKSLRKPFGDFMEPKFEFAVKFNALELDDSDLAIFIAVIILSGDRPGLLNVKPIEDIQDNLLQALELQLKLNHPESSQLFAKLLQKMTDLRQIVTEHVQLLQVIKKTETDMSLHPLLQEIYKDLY
# [3] = molecular target: Peroxisome proliferator-activated receptor delta (Homo sapiens, UniProt Q03181); assay: Agonist activity at human PPARdelta transfected in african green monkey COS7 cells assessed transactivation incubated for 16 hrs by luciferase assay
# Sequence of Peroxisome proliferator-activated receptor delta (Q03181 whole entry): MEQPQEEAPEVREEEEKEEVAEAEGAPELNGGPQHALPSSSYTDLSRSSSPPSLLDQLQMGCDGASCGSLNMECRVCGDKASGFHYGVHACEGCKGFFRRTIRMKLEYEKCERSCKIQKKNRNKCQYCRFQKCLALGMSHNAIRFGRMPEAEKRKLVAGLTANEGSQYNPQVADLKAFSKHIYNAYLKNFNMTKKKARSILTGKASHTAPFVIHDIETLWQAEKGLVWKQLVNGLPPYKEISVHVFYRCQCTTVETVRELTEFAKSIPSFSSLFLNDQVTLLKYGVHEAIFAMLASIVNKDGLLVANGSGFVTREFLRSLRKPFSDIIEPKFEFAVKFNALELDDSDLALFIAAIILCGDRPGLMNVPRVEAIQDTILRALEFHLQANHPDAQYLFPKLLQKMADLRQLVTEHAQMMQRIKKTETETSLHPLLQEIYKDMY
Structure (SMILES),EC50 [1] [nM],EC50 [2] [nM],EC50 [3] [nM]
Cc1cc(CCN2C(=O)CN(c3ccc(C(F)(F)F)cc3)C2=O)cc(C)c1OC(C)(C)C(=O)O,,277,
Cc1cc(N2C(=O)CN(c3ccc(C(F)(F)F)cc3)C2=O)cc(C)c1OC(C)(C)C(=O)O,,> 5000,
CSc1ccc(N2CC(=O)N(Cc3cc(C)c(OC(C)(C)C(=O)O)c(C)c3)C2=O)cc1,2.7,1170,8.2
Cc1cc(Cn2ncn(-c3ccc(OC(F)(F)F)cc3)c2=O)cc(C)c1OC(C)(C)C(=O)O,7.4,,
Cc1cc(CN2C(=O)CN(c3ccc(C(F)(F)F)cc3)C2=O)cc(C)c1OC(C)C(=O)O (stereo unspecified),,> 5000,8.4

# Other lines, results leading:
EC50 [1] [nM],EC50 [2] [nM],EC50 [3] [nM],Structure (SMILES)
> 5000,> 5000,,Cc1cc(CN2C(=O)CN(c3ccccc3C(F)(F)F)C2=O)cc(C)c1OC(C)(C)C(=O)O
,1390,,Cc1cc(CN2C(=O)CN(c3ccc(OC(F)(F)F)cc3)C2=O)cc(C)c1OC(C)(C)C(=O)O
